Patent publication US20130267494A1, “1,4-OXAZEPANE DERIVATIVES” (priority 2010, published 2013)
Where a name gives a salt, the structure may show the parent alone. Read-outs that look alike come from different tables or passages of the source.

How the values were obtained:
Type in all cases: cell-based
[1] = biological target: T1, human serotonin transporter (Homo sapiens, UniProt P31645); test: Inhibitory action on human serotonin transporter ([3H]-5-hydroxytryptamine uptake in CHO cells); settings: relative to inhibitory activity of 10 μM Paroxetine as 100%
T1 construct: expressed in transfected cells
Outline: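 CHO-K1 cells stably expressing human SERT, plated overnight, took up [3H]-5-HT (diluted to 200 nM before a 1:10 addition) for 20 min in HEPES-buffered saline with glucose and 0.5% BSA; radioactivity counted by scintillation. Compounds at 10 μM or 1 μM, activity expressed relative to 10 μM paroxetine set as 100%.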

[2] = biological target: T2, human norepinephrine transporter (Homo sapiens, UniProt P23975); test: Inhibitory action on human norepinephrine transporter ([3H]-norepinephrine uptake in CHO cells); settings: relative to inhibitory activity of 10 μM DMI as 100%
T2 construct: expressed in transfected cells
Outline: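 Stably transfected CHO-K1 cells plated overnight, then given test compound and [3H]-norepinephrine (20 nM final, from 200 nM) in HEPES-buffered saline with 0.5% BSA for 45 min. After PBS washes, retained radioactivity counted by scintillation. Inhibition at 10 μM or 1 μM compound expressed relative to 10 μM DMI as 100%.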

[3] = biological target: T3, human dopamine transporter (Homo sapiens, UniProt Q01959); test: Inhibitory action on human dopamine transporter ([3H]-dopamine uptake in CHO cells); settings: relative to inhibitory activity of 100 μM Nomifensine as 100%
T3 construct: expressed in transfected cells
Outline: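 CHO-K1 cells stably expressing human dopamine transporter, exposed to compound at 10 μM or 1 μM in HEPES-buffered saline with 0.5% BSA. [3H]-dopamine uptake measured over 60 min by scintillation counting. Activity expressed relative to 100 μM nomifensine as 100%.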

[4] = CHO, compound 1 μM, read-out: inhibitory rate (%)
[5] = CHO, compound 10 μM, read-out: inhibitory rate (%)

T2 sequence (P23975 whole entry): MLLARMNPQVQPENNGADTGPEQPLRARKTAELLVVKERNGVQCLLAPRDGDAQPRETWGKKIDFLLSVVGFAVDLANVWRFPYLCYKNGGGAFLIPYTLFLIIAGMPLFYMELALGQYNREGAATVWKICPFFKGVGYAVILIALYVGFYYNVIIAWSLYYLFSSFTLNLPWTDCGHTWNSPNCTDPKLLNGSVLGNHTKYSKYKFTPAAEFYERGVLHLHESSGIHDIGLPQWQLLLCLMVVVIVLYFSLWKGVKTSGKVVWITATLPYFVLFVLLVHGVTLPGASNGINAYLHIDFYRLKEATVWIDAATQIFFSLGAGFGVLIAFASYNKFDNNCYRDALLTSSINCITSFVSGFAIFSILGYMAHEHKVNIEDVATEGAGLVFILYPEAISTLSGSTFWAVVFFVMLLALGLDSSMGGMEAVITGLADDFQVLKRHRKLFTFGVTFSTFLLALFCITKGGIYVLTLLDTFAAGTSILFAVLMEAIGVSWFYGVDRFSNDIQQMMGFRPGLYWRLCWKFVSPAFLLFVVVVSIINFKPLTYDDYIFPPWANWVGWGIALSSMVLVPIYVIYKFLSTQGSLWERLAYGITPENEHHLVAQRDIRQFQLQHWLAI
T3 sequence (Q01959 whole entry): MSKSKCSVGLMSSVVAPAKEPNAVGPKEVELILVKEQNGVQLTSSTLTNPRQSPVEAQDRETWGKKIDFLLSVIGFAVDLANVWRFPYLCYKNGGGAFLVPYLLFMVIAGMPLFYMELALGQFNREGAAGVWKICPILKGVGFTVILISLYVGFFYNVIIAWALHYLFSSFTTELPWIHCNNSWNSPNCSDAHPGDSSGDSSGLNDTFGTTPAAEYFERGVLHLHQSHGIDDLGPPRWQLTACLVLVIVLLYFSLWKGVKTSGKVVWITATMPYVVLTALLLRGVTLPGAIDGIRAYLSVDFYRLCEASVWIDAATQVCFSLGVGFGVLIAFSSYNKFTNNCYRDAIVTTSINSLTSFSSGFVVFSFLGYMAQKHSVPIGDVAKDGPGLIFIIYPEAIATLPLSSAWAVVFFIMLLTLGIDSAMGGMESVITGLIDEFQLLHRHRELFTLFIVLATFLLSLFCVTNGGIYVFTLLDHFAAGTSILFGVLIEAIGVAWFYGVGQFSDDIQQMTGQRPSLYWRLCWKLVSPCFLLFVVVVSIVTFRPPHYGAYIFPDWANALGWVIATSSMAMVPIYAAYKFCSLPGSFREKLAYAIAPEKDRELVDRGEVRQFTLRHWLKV
T1 sequence (P31645 whole entry): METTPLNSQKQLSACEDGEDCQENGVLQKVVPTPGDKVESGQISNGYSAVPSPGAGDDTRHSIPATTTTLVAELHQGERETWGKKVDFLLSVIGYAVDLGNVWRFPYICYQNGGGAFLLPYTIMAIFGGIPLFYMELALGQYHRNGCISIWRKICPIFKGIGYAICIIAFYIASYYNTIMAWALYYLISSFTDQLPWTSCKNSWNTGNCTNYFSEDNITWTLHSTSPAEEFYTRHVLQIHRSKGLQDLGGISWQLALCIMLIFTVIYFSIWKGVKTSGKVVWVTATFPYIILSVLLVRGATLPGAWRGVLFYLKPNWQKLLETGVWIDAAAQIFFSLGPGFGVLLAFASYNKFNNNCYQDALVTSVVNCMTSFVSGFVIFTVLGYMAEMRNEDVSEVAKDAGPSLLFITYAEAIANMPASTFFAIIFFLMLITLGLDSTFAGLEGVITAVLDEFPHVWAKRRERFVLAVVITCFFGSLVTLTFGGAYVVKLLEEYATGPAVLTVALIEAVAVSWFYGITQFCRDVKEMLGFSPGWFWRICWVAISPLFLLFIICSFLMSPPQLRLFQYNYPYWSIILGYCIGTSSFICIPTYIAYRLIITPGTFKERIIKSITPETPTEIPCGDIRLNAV

inhibition at 1 µM [1, 4] [%]	inhibition at 1 µM [3, 4] [%]	inhibition at 1 µM [2, 4] [%]	Compound	also measured
84	36	105	CS(=O)(=O)NCCC[C@@H]1OCCNC[C@H]1c1ccc(Cl)c(Cl)c1 (racemic) [Example 520, N-{3-[(6RS,7SR)-6-(3,4-dichlorophenyl)-1,4-oxazepan-7-yl]propyl}methanesulfonamide monohydrochloride]	
27	47	101	O=C(Cn1cncn1)NC[C@@H]1OCCNC[C@@H]1c1ccc(Cl)c(Cl)c1 (racemic) [Example 457, N-{[(6RS,7SR)-6-(3,4-dichlorophenyl)-1,4-oxazepan-7-yl]methyl}-2-(1H-1,2,4-triazol-1-yl)acetamide monohydrochloride]	
77	77	100	OCC(O)(CO)[C@@H]1OCCNC[C@H]1c1ccc(Cl)c(Cl)c1 [Example 491, 2-[(6R,7R)-6-(3,4-dichlorophenyl)-1,4-oxazepan-7-yl]propane-1,2,3-triol monohydrochloride]	
46	1	98	CO[C@@]1(CNC(C)=O)CNCCO[C@H]1c1ccc(Cl)c(F)c1 (relative stereo) [Example 561, N-{[(6R*,7S*)-7-(4-chloro-3-fluorophenyl)-6-methoxy-1,4-oxazepan-6-yl]methyl}acetamide monohydrochloride (retention time long)]	
78	38	104	O=C(O)c1ccnn(C[C@@H]2CNCCO[C@H]2c2ccc(Cl)c(F)c2)c1=O [Example 597, 2-{[(6S, 7R)-7-(4-chloro-3-fluoro-phenyl)-1,4-oxazepan-6-yl]methyl}-3-oxo-2,3-dihydro-pyridazine-4-carboxylic acid]	
92	17	102	OCC(O)COC[C@@]1(c2ccc(Cl)c(Cl)c2)CCNCCO1 (stereo partly drawn) [Example 417, 3-{[(7S)-7-(3,4-dichlorophenyl)-1,4-oxazepan-7-yl]methoxy}propane-1,2-diol monohydrochloride]	
46	25	104	O=C(CO)NC[C@@H]1OCCNC[C@H]1c1ccc(Cl)c(Cl)c1 [Example 507, N-{[(6R,7R)-6-(3,4-dichlorophenyl)-1,4-oxazepan-7-yl]methyl}-2-hydroxyacetamide monohydrochloride]	

Second part, the compound before the results:

Compound	inhibition at 1 µM [1, 4] [%]	inhibition at 1 µM [3, 4] [%]	inhibition at 1 µM [2, 4] [%]	also measured
OC[C@@H]1CNCCO[C@H]1c1ccc(F)c(Cl)c1 [Example 284, [(6S,7R)-7-(3-chloro-4-fluorophenyl)-1,4-oxazepan-6-yl]methanol monofumarate]	34	11		inhibition at 1 µM ([2]; CHO, read-out: inhibitory rate (%), compound 1 μM): 96%
Cc1cc(C(=O)O)nn1C[C@@H]1CNCCO[C@H]1c1ccc(Cl)c(Cl)c1 [Example 187, 1-{[(6S,7R)-7-(3,4-dichlorophenyl)-1,4-oxazepan-6-yl]methyl}-5-methyl-1H-pyrazole-3-carboxylic acid monohydrochloride]	86	53	101	
CS(=O)(=O)C[C@@H]1CNCCO[C@@H]1c1ccc(Cl)c(Cl)c1 (racemic) [Example 50, (6RS,7SR)-7-(3,4-dichlorophenyl)-6-[(methylsulfonyl)methyl]-1,4-oxazepane monohydrochloride]	100	64	98	
O=c1nc(-c2ccccc2S(=O)(=O)C[C@@H]2CNCCO[C@H]2c2ccc(Cl)c(Cl)c2)[nH]o1 [Example 167, 3-[2-({[(6R,7R)-7-(3,4-dichlorophenyl)-1,4-oxazepan-6-yl]methyl}sulfonyl)phenyl]-1,2,4-oxadiazol-5(2H)-one monohydrochloride]	93	88	103	
OC[C@H]1CNCCO[C@@H]1c1ccc(F)c(Cl)c1 [Example 285, [(6R,7S)-7-(3-chloro-4-fluorophenyl)-1,4-oxazepan-6-yl]methanol 0.5 fumarate]	79	19	94	
Cc1cc(C2OCCNCC2CO)ccc1Cl (stereo not drawn) [Example 402, [(6R*,7S*)-7-(4-chloro-3-methylphenyl)-1,4-oxazepan-6-yl]methanol monohydrochloride (retention time long)]				inhibitory rate (%) ([1]; compound 1 μM): 91%; inhibitory rate (%) ([2]; compound 1 μM): 98%; inhibitory rate (%) ([3]; compound 1 μM): 19%
O=C(NC[C@@H]1CNCCO[C@H]1c1ccc(Cl)c(Cl)c1)c1cccc(-c2noc(=O)[nH]2)c1 [Example 142, N-{[(6S,7R)-7-(3,4-dichlorophenyl)-1,4-oxazepan-6-yl]methyl}-3-(5-oxo-4,5-dihydro-1,2,4-oxadiazol-3-yl)benzamide monohydrochloride]	95	4	100	
COC1(c2ccc(Cl)c(Cl)c2)CNCCOC1 (racemic) [Example 17, (6RS)-6-(3,4-dichlorophenyl)-6-methoxy-1,4-oxazepane monohydrochloride]	70	19	75	inhibition at 10 µM ([1]; CHO, compound 10 μM, CHO cells expressing human serotonin transporter, read-out: inhibitory rate (%)): 96%; inhibition at 10 µM [2, 5]: 97%; inhibition at 10 µM [3, 5]: 53%
O=C(O)c1cccn(C[C@@H]2CNCCO[C@H]2c2ccc(Cl)c(F)c2)c1=O (racemic) [Example 588, 1-{[(6RS, 7SR)-7-(4-chloro-3-fluoro-phenyl)-1,4-oxazepan-6-yl]methyl}-2-oxo-1,2-dihydro-pyridine-3-carboxylic acid]	43	12	104	
NC(=O)N[C@@H]1CNCCO[C@H]1c1ccc(Cl)c(Cl)c1 [Example 262, 1-[(6R,7S)-7-(3,4-dichlorophenyl)-1,4-oxazepan-6-yl]urea monohydrochloride]	71	52	98	
O[C@H]1CNCCO[C@@H]1c1ccc(Cl)c(Cl)c1 (racemic) [Example 230, (6RS,7SR)-7-(3,4-dichlorophenyl)-1,4-oxazepan-6-ol monohydrochloride]	59	25	100	
OC[C@@H](O)[C@@H]1OCCNC[C@H]1c1ccc(Cl)c(Cl)c1 [Example 46, (1R)-1-[(6R,7R)-6-(3,4-dichlorophenyl)-1,4-oxazepan-7-yl]ethane-1,2-diol monohydrochloride]	70	27	104	
OCCC[C@@H]1CNCCO[C@H]1c1ccc(Cl)c(Cl)c1 [Example 212, 3-[(6R,7R)-7-(3,4-dichlorophenyl)-1,4-oxazepan-6-yl]propan-1-ol monohydrochloride]	98	94	103	
OCCOC[C@@]1(c2ccc(Cl)c(Cl)c2)CCNCCO1 [Example 416, 2-{[(7S)-7-(3,4-dichlorophenyl)-1,4-oxazepan-7-yl]methoxy}ethanol monohydrochloride]	85	18	100	
